Literature values as cited in patent US20100221330A1, “BUOYANT FORMULATIONS OF BETAINE” (priority 2003, published 2010).

Conditions: human subjects, betaine supplementation

Question: For C[N+](C)(C)CC(=O)O [betaine], which “Effect on blood pressure” value is on record?
Answer: reduces the blood pressure, especially the diastolic pressure
